Test results reported in patent US9725465B2, “Biaryl acetamide compounds and methods of use thereof” (Ambit Biosciences Corporation, priority 2013, dated 2017).

How the values were obtained:
FLT3-ITD = FLT3-ITD (Homo sapiens (Human), UniProt P36888, INS600HVDFREYEYD); assay: pFLT3 MSD assay, Ba/F3 FLT3-ITD; format: cell-based; conditions: Ba/F3 FLT3-ITD cells, 2 hours, read-out: BaF3-FLT3-ITD pFlt3 IC50
Method: In certain other embodiments, the compounds disclosed herein are tested in a FLT3 phosphorylation assay to determine their cellular potency against one or both of FLT3-ITD and FLT3 tyrosine kinase domain mutants. In certain embodiments, the FLT3 phosphorylation assay assesses the potency of compounds as FLT3 inhibitors by measuring the reduction in formation of phosphorylated FLT3 in the cells.
Gene constructs containing the human FLT3 sequences FLT3-ITD, FLT3-ITD-F691L, FLT3-ITD-D835V and FLT3-D835V were synthesized by reverse translation of the human protein sequences, with codons optimized for mammalian expression. Sequence of the internal tandem duplication (ITD) was based on the MV4-11 ITD sequence. […] Viruses were transduced into the IL-3-dependent, murine macrophage cell line, Ba/F3, and selected for puromycin resistance and IL-3 independence. All cell lines were cloned by limiting dilution and clones were used for all subsequent cell assays.
Briefly, cell lines were serum starved overnight in media containing 0.5% FBS. Cells were plated at 200,000 cells/well in 96-well round bottom plates in low serum, and 3-fold serial dilutions of test compounds were added for 2 hours at 37° C. […] After an overnight incubation at 4° C. shaking at 450 rpm, plates were washed with MSD wash buffer, and captured FLT3 was detected with biotinylated-anti-phosphotyrosine antibody 4G10 (Millipore) and SulfoTAG-streptavidin (MSD) for 1 hour at room temperature, and read on an MSD SECTOR Imager 6000. Percent remaining phospho-FLT3 in compound-treated cells was normalized to DMSO-treated cells, and IC50s were determined using Igor Pro software. All compounds are assayed in duplicate cell and MSD plates.

KIT kinase = KIT kinase (Homo sapiens (Human), UniProt P10721); assay: Competition binding assay (Kd), KIT; conditions: competition binding
Summary of the method: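 Kinase, as T7 phage fusion or HEK-293-expressed DNA-tagged protein, competed off immobilised ligand beads by test compound (eleven-point threefold dilutions, from 100× DMSO stocks). Eluted kinase quantified by qPCR to derive Kd; DMSO used as control.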

FLT3 kinase = FLT3 kinase (Homo sapiens (Human), UniProt P36888); assay: Competition binding assay (Kd), FLT3; conditions: competition binding
FLT3 kinase, sequence (P36888 27-993): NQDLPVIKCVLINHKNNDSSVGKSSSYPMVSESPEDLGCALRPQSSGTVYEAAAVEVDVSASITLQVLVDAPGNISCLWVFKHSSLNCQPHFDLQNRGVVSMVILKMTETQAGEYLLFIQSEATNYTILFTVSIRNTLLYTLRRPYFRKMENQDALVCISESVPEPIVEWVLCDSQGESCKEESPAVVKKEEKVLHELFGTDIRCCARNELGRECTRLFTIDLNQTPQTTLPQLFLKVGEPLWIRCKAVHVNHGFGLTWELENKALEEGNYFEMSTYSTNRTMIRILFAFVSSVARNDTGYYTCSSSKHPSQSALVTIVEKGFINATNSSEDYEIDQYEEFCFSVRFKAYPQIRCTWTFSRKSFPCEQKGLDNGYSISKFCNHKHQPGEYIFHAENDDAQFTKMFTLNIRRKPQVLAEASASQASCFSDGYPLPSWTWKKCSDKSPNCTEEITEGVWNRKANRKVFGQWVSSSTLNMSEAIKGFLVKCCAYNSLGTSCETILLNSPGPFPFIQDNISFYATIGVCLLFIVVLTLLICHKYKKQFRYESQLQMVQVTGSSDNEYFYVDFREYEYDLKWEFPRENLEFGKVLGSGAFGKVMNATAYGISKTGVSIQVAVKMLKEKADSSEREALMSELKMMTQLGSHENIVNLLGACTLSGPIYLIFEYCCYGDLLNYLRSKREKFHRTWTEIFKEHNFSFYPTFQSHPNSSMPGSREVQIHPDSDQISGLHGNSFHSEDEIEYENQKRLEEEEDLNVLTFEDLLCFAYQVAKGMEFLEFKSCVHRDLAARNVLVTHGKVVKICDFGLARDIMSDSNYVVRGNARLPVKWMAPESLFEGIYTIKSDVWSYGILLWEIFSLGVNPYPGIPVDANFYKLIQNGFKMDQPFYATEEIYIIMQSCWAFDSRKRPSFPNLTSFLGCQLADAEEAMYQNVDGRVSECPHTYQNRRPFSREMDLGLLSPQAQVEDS

FLT3-ITD, sequence (P36888 other isoform, or with tags, fused parts or gaps limits assumed, stated change not applied): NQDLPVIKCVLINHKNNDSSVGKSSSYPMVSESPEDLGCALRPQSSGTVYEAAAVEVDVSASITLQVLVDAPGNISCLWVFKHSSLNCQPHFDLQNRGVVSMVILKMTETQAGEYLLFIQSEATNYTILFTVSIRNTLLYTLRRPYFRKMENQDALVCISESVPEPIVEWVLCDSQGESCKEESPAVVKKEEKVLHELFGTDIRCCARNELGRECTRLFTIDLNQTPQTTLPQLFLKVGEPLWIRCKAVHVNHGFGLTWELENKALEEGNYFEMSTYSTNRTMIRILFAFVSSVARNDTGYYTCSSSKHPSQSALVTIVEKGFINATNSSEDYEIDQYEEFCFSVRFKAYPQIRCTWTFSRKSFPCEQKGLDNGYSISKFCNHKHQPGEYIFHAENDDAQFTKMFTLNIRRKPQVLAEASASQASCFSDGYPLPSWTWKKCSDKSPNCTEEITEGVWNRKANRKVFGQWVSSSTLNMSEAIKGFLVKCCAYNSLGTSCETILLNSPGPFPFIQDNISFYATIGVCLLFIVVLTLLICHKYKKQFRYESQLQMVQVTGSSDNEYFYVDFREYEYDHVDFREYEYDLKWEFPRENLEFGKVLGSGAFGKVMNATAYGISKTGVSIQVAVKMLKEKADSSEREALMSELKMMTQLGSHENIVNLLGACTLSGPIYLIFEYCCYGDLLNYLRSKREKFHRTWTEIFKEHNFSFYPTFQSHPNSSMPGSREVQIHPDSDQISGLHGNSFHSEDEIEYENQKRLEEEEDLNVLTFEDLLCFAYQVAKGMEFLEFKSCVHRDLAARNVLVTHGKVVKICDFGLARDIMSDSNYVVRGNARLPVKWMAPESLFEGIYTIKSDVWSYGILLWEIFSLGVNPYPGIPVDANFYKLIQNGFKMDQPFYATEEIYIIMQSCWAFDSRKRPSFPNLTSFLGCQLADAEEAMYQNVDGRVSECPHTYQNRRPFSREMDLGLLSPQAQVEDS
KIT kinase, sequence (P10721 26-976): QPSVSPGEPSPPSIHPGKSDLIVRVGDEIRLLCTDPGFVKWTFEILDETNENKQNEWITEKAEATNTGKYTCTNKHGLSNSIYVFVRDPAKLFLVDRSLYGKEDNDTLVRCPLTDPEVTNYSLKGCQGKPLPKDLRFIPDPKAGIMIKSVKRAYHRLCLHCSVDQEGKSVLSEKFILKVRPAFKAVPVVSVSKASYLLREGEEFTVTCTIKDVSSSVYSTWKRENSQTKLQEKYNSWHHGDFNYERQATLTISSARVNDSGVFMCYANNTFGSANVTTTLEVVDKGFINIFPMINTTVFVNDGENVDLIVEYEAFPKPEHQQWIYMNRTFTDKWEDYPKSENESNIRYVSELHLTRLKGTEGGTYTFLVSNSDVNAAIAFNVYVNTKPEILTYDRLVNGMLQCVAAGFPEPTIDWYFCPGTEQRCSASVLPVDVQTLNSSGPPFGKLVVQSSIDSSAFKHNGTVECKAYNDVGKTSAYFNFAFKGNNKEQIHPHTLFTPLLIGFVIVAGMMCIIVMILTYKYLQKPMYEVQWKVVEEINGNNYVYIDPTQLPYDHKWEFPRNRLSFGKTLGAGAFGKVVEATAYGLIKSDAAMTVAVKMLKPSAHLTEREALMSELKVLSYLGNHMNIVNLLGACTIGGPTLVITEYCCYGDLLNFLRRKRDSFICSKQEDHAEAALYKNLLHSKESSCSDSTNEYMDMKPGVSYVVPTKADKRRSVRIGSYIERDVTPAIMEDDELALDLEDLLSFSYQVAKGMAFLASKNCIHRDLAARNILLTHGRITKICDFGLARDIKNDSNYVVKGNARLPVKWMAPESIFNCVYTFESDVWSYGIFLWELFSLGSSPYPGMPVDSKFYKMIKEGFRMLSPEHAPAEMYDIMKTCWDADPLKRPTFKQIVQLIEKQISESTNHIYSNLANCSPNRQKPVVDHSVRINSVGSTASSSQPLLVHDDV

| SMILES | IC50 (FLT3-ITD) | Kd (KIT kinase) | Kd (FLT3 kinase) |
| --- | --- | --- | --- |
| COc1cc2ncc(-c3ccc(CC(=O)Nc4cc(C5(C(F)(F)F)CC5)on4)cc3)nc2cc1OC [Example 1, 2-(4-(6,7-dimethoxyquinoxalin-2-yl)phenyl)-N-(5-(1-(trifluoromethyl)cyclopropyl)isoxazol-3-yl)acetamide] | < 10 nM | – | – |
| CC(C)(C)c1cc(NC(=O)Cc2ccc(-c3cnc4[nH]ccc4c3)cc2)no1 [Example 25, 2-(4-(1H-pyrrolo[2,3-b]pyridin-5-yl)phenyl)-N-(5-(tert-butyl)isoxazol-3-yl)acetamide] | < 10 nM | – | – |
| CC(C)(c1cc(NC(=O)Cc2ccc(-c3cnc4[nH]ccc4c3)cc2)no1)C(F)(F)F [Example 26, 2-(4-(1H-pyrrolo[2,3-b]pyridin-5-yl)phenyl)-N-(5-(1,1,1-trifluoro-2-methylpropan-2-yl)isoxazol-3-yl)acetamide] | < 10 nM | – | – |
| CC(C)(C)c1cc(NC(=O)Cc2ccc(-c3cnc4[nH]ccc4c3)cc2F)no1 [Example 27, N-(5-(tert-butyl)isoxazol-3-yl)-2-(2-fluoro-4-(1H-pyrrolo[2,3-b]pyridin-5-yl)phenyl)acetamide] | < 10 nM | – | – |
| O=C(Cc1ccc(-c2cnc3[nH]ccc3c2)cc1F)Nc1cc(C2(C(F)(F)F)CC2)on1 [Example 28, 2-(2-fluoro-4-(1H-pyrrolo[2,3-b]pyridin-5-yl)phenyl)-N-(5-(1-(trifluoromethyl)cyclopropyl)isoxazol-3-yl)acetamide] | < 10 nM | – | – |
| CC(C)(c1cc(NC(=O)Cc2ccc(-c3cnc4[nH]ccc4c3)cc2F)no1)C(F)(F)F [Example 29, 2-(2-fluoro-4-(1H-pyrrolo[2,3-b]pyridin-5-yl)phenyl)-N-(5-(1,1,1-trifluoro-2-methylpropan-2-yl)isoxazol-3-yl)acetamide] | < 10 nM | – | – |
| O=C(Cc1ccc(-c2cnc3[nH]ccc3n2)cc1F)Nc1cc(C2(C(F)(F)F)CC2)on1 [Example 30, 2-(2-fluoro-4-(5H-pyrrolo[2,3-b]pyrazin-2-yl)phenyl)-N-(5-(1-(trifluoromethyl)cyclopropyl)isoxazol-3-yl)acetamide] | < 10 nM | – | – |
| CC(C)(C)c1cc(NC(=O)Cc2ccc(-c3cnc4[nH]ncc4c3)cc2)no1 [Example 31, 2-(4-(1H-pyrazolo[3,4-b]pyridin-5-yl)phenyl)-N-(5-(tert-butyl)isoxazol-3-yl)acetamide] | < 10 nM | – | – |
| CC(C)(C)c1cc(NC(=O)Cc2ccc(-c3cnc4[nH]ncc4c3)cc2F)no1 [Example 32, N-(5-(tert-butyl)isoxazol-3-yl)-2-(2-fluoro-4-(1H-pyrazolo[3,4-b]pyridin-5-yl)phenyl)acetamide] | < 10 nM | – | – |
| O=C(Cc1ccc(-c2cnc3[nH]ncc3c2)cc1F)Nc1cc(C2(C(F)(F)F)CC2)on1 [Example 33, 2-(2-fluoro-4-(1H-pyrazolo[3,4-b]pyridin-5-yl)phenyl)-N-(5-(1-(trifluoromethyl)cyclopropyl)isoxazol-3-yl)acetamide] | < 10 nM | – | – |
| CC(C)(c1cc(NC(=O)Cc2ccc(-c3cnc4[nH]ncc4c3)cc2F)no1)C(F)(F)F [Example 34, 2-(2-fluoro-4-(1H-pyrazolo[3,4-b]pyridin-5-yl)phenyl)-N-(5-(1,1,1-trifluoro-2-methylpropan-2-yl)isoxazol-3-yl)acetamide] | < 10 nM | – | – |
| COc1n[nH]c2ncc(-c3ccc(CC(=O)Nc4cc(C(C)(C)C(F)(F)F)on4)cc3)cc12 [Example 35, 2-(4-(3-methoxy-1H-pyrazolo[3,4-b]pyridin-5-yl)phenyl)-N-(5-(1,1,1-trifluoro-2-methylpropan-2-yl)isoxazol-3-yl)acetamide] | < 10 nM | – | – |
| COc1cc(OC)c2cc(-c3ccc(CC(=O)Nc4cc(C5(C(F)(F)F)CC5)on4)c(F)c3)cnc2c1 [Example 36, 2-(4-(5,7-dimethoxyquinolin-3-yl)-2-fluorophenyl)-N-(5-(1-(trifluoromethyl)cyclopropyl)isoxazol-3-yl)acetamide] | < 10 nM | – | – |
| CC(C)(C)c1cc(NC(=O)Cc2ccc(-c3cnc4[nH]nc(C#N)c4c3)cc2)no1 [Example 37, N-(5-(tert-butyl)isoxazol-3-yl)-2-(4-(3-cyano-1H-pyrazolo[3,4-b]pyridin-5-yl)phenyl)acetamide] | < 10 nM | – | – |
| CC(C)(C)c1cc(NC(=O)Cc2ccc(-c3cnc4[nH]nc(Cl)c4c3)cc2)no1 [Example 38, N-(5-(tert-butyl)isoxazol-3-yl)-2-(4-(3-chloro-1H-pyrazolo[3,4-b]pyridin-5-yl)phenyl)acetamide] | < 10 nM | – | – |
| CCOc1n[nH]c2ncc(-c3ccc(CC(=O)Nc4cc(C(C)(C)C(F)(F)F)on4)cc3)cc12 [Example 39, 2-(4-(3-ethoxy-1H-pyrazolo[3,4-b]pyridin-5-yl)phenyl)-N-(5-(1,1,1-trifluoro-2-methylpropan-2-yl)isoxazol-3-yl)acetamide] | < 10 nM | – | – |
| Cc1n[nH]c2ncc(-c3ccc(CC(=O)Nc4cc(C(C)(C)C)on4)cc3)cc12 [Example 40, N-(5-(tert-butyl)isoxazol-3-yl)-2-(4-(3-methyl-1H-pyrazolo[3,4-b]pyridin-5-yl)phenyl)acetamide] | < 10 nM | – | – |
| CC(C)(c1cc(NC(=O)Cc2ccc(-c3cnc4[nH]nnc4c3)cc2)no1)C(F)(F)F [Example 41, 2-(4-(3H-[1,2,3]triazolo[4,5-b]pyridin-6-yl)phenyl)-N-(5-(1,1,1-trifluoro-2-methylpropan-2-yl)isoxazol-3-yl)acetamide] | < 10 nM | – | – |
| COc1cc2ncc(-c3ccc(CC(=O)Nc4cc(C5(C(F)(F)F)CC5)on4)cc3F)nc2cc1OC [Example 42, 2-(4-(6,7-dimethoxyquinoxalin-2-yl)-3-fluorophenyl)-N-(5-(1-(trifluoromethyl)cyclopropyl)isoxazol-3-yl)acetamide] | < 10 nM | – | – |
| COc1cc2ncc(-c3ccc(CC(=O)Nc4cc(C(C)(C)C)on4)c(F)c3)nc2cc1OC [Example 43, N-(5-(tert-butyl)isoxazol-3-yl)-2-(4-(6,7-dimethoxyquinoxalin-2-yl)-2-fluorophenyl)acetamide] | < 10 nM | – | – |
| CC(C)(c1cc(NC(=O)Cc2ccc(-c3cnc4[nH]ncc4c3)cc2)no1)C(F)(F)F [Example 44, 2-(4-(1H-pyrazolo[3,4-b]pyridin-5-yl)phenyl)-N-(5-(1,1,1-trifluoro-2-methylpropan-2-yl)isoxazol-3-yl)acetamide] | < 10 nM | – | – |
| CN(C)C(=O)c1n[nH]c2ncc(-c3ccc(CC(=O)Nc4cc(C(C)(C)C)on4)cc3)cc12 [Example 45, 5-(4-(2-((5-(tert-butyl)isoxazol-3-yl)amino)-2-oxoethyl)phenyl)-N,N-dimethyl-1H-pyrazolo[3,4-b]pyridine-3-carboxamide] | < 10 nM | – | – |
| COc1cc2nc(-c3ccc(CC(=O)Nc4cc(C5(C(F)(F)F)CC5)on4)c(F)c3)cnc2cc1OCCN1CCO[C@H](C)C1 [Example 242, 2-[2-fluoro-4-[7-methoxy-6-[2-[(2R)-2-methylmorpholin-4-yl]ethoxy]quinoxalin-2-yl]phenyl]-N-[5-[1-(trifluoromethyl)cyclo-propyl]isoxazol-3-yl]acetamide] | – | < 5 nM | < 5 nM |
| COc1cc2nc(-c3ccc(CC(=O)Nc4cc(C5(C(F)(F)F)CC5)on4)c(F)c3)cnc2cc1OCCN1CCOC[C@@H]1C [Example 243, 2-[2-fluoro-4-[7-methoxy-6-[2-[(3S)-3-methylmorpholin-4-yl]ethoxy]quinoxalin-2-yl]phenyl]-N-[5-[1-(trifluoromethyl)cyclo-propyl]isoxazol-3-yl]acetamide] | – | < 5 nM | < 5 nM |
| COc1cc2nc(-c3ccc(CC(=O)Nc4cc(C5(C(F)(F)F)CC5)on4)c(F)c3)cnc2cc1OCCN1CC2CCC(C1)O2 [Example 244, 2-[2-fluoro-4-[7-methoxy-6-[2-(8-oxa-3-azabicyclo[3.2.1]octan-3-yl)ethoxy]quinoxalin-2-yl]phenyl]-N-[5-[1-(trifluoromethyl)cyclo-propyl]isoxazol-3-yl]acetamide] | – | < 5 nM | < 5 nM |
| COc1cc2nc(-c3ccc(CC(=O)Nc4cc(C5(C(F)(F)F)CC5)on4)c(F)c3)cnc2cc1OCCN1C2CCC1COC2 [Example 245, 2-[2-fluoro-4-[7-methoxy-6-[2-(3-oxa-8-azabicyclo[3.2.1]octan-8-yl)ethoxy]quinoxalin-2-yl]phenyl]-N-[5-[1-(trifluoromethyl)cyclo-propyl]isoxazol-3-yl]acetamide] | – | < 5 nM | < 5 nM |
| COc1cc2nc(-c3ccc(CC(=O)Nc4cc(C(C)(C)C(F)(F)F)on4)c(F)c3)cnc2cc1OCC(C)(C)O [Example 246, 2-[2-fluoro-4-[6-(2-hydroxy-2-methyl-propoxy)-7-methoxy-quinoxalin-2-yl]phenyl]-N-[5-(2,2,2-trifluoro-1,1-dimethyl-ethyl)isoxazol-3-yl]acetamide] | – | < 5 nM | < 5 nM |
| COc1cc2nc(-c3ccc(CC(=O)Nc4cc(C5(C(F)(F)F)CC5)on4)c(F)c3)cnc2cc1OCCN1CCOC[C@H]1C [Example 247, 2-[2-fluoro-4-[7-methoxy-6-[2-[(3R)-3-methylmorpholin-4-yl]ethoxy]quinoxalin-2-yl]phenyl]-N-[5-[1-(trifluoromethyl)cyclo-propyl]isoxazol-3-yl]acetamide] | – | < 5 nM | < 5 nM |
| COc1cc2nc(-c3ccc(CC(=O)Nc4cc(C5(C(F)(F)F)CC5)on4)c(F)c3)cnc2cc1OCCN1CCO[C@@H](C)C1 [Example 248, 2-[2-fluoro-4-[7-methoxy-6-[2-[(2S)-2-methylmorpholin-4-yl]ethoxy]quinoxalin-2-yl]phenyl]-N-[5-[1-(trifluoromethyl)cyclo-propyl]isoxazol-3-yl]acetamide] | – | < 5 nM | < 5 nM |
| COc1cc2nc(-c3ccc(CC(=O)Nc4cc(C5(C(F)(F)F)CC5)on4)c(F)c3)cnc2cc1OCC(C)(C)O [Example 249, 2-[2-fluoro-4-[6-(2-hydroxy-2-methyl-propoxy)-7-methoxy-quinoxalin-2-yl]phenyl]-N-[5-[1-(trifluoro-methyl)cyclopropyl]isoxazol-3-yl]acetamide] | – | < 5 nM | < 5 nM |
